{"source": "patent US20220184019A1", "about": "“Use of chlorogenic acid in preparation of drug for preventing and treating ocular inflammation” (SICHUAN JIUZHANG BIOLOGICAL SCIENCE AND TECHNOLOGY CO., LTD, priority 2017, published 2022)", "key": {"scleritis [1]": {"tested_on": "scleritis", "experiment": "Clinical efficacy on scleritis: inflammation control in one month", "assay_type": "in vivo, patients", "settings": "for Cure / Improved / Ineffective / Total effective rate: scleritis patients, n=10 per group, inflammation control in one month", "protocol": "(§1) Twenty patients with scleritis were randomly divided into chlorogenic acid test group (10 patients) and control group (10 patients). Patients in chlorogenic acid test group were given chlorogenic acid at a dose of 3 mg/(kg·d) by intramuscular injection. The patients in the control group were given dexamethasone sodium phosphate (5 mg/d) by intravenous injection, and after continuous observation and treatment for 5 days, they initially received oral […] (1 mg/(kg·d)). Both groups were continuously administrated for one month.\n(§2) According to the random table, 20 patients with scleritis were randomly divided into two groups, namely chlorogenic acid test group and dexamethasone sodium phosphate control group. Among 10 patients of chlorogenic acid control group, there were one male and 9 females, with an average age of (30.5±5.1) years old and an average course of disease (5.1±0.3). In the dexamethasone sodium phosphate control group, there were one male and 9 females, with an average age of (31.5±4.7) years old and an average course of disease (5.5±0.3). For both groups of patients, there was no statistically significant difference (P>0.05) in the clinical data including age, gender, and disease course, having comparability.\n(§3) (1) Inquiring the medical history in detail, performing detailed examinations such as slit lamp examination, fundus examination, ultrasound examination, eye imaging, etc., and making a clear diagnosis of the patient with scleritis; (2) No glucocorticoid and chlorogenic acid contraindications; (3) Patients having non-microbial infectious scleritis; (4) Patients having no obvious abnormalities in blood routine, electrolytes, liver function, kidney function, blood pressure, blood sugar, and so on.\n(§4) (1) Patients with microbial infectious scleritis and systemic infectious diseases; (2) Episcleritis; (3) Patients allergic to glucocorticoids or having toxic side effects due to administration of glucocorticoids; (4) Pregnant women and lactating women as well as babies; (5) Patients with moderate hypertension, severe cardiovascular and cerebrovascular diseases, diabetes, as well as liver and kidney function impairment; (6) Patients having poor compliance and refusing regular review and follow-up.\n(§5) Patients in chlorogenic acid test group were given chlorogenic acid at a dose of 3 mg/(kg·d) by intramuscular injection. The patients in the control group were given dexamethasone sodium phosphate at 5 mg/day by intravenous infusion, and after continuous observation and treatment for 3 days, they were changed to oral prednison (1 mg/(kg·d)). Both groups were continuously administrated for one month.\n(1) Cure: the eye symptoms and signs completely disappeared after treatment; (2) Improved: the eye symptoms and signs improved after treatment; (3) Ineffective: the inflammation was not controlled, or the situation was the same as before treatment."}, "scleritis [2]": {"tested_on": "scleritis", "experiment": "Clinical efficacy on scleritis: vision recovery in one month (logarithmic visual acuity chart)", "assay_type": "in vivo, patients", "settings": "for Ineffective / Total effective rate / Improved / Significantly improved vision: scleritis patients, n=10 per group, vision recovery in one month; for Improved: improving 1-2 lines; for Significantly improved vision: improving 3 lines or more", "protocol": "as §1, §2, §3, §4, §5\n(1) After treatment, the same logarithmic visual acuity chart (the best corrected visual acuity was measured for those with ametropia) was used to detect and record the vision. Significant improvement: improving 3 lines or more; improvement: improving 1-2 lines; ineffective: the vision was not improved or even decreased."}, "[3]": {"tested_on": "experimental autoimmune uveitis (EAU)", "experiment": "Therapeutic effect on IRBP-induced experimental autoimmune uveitis in rats; slit-lamp ocular inflammation score (Caspi clinical grading)", "assay_type": "in vivo, SD rats", "settings": "20 mg/kg intraperitoneal; for Scores of ocular inflammation in rats: EAU SD rats"}, "[4]": {"settings": "3 mg/(kg·d) intramuscular, one month, vs dexamethasone sodium phosphate control, P<0.05"}}, "note": "“Also recorded” adds a separate entry of the source. Marks after values point to notes of the source that are not given here."}
{"smiles": "C[C@@H]1C[C@H]2[C@@H]3CCC4=CC(=O)C=C[C@]4(C)[C@@]3(F)[C@@H](O)C[C@]2(C)[C@@]1(O)C(=O)COP(=O)(O)O", "note": "[Control group, dexamethasone sodium phosphate, reference compound]", "values": [{"measurement": "Cure", "setting": "scleritis [1]", "value": "2 (20%) cases (%)"}, {"measurement": "Improved", "setting": "scleritis [1]", "value": "3 (30%) cases (%)"}, {"measurement": "Ineffective", "setting": "scleritis [1]", "value": "5 (50%) cases (%)"}, {"measurement": "Total effective rate", "setting": "scleritis [1]", "value": "5 (50%) cases (%)"}, {"measurement": "Ineffective", "setting": "scleritis [2]", "value": "4 (40%) case (%)"}, {"measurement": "Total effective rate", "setting": "scleritis [2]", "value": "60 (60%) case (%)"}, {"measurement": "Improved", "setting": "scleritis [2]", "value": "3 (30%) case (%)"}, {"measurement": "Significantly improved vision", "setting": "scleritis [2]", "value": "3 (30%) case (%)"}]}
{"smiles": "O=C(/C=C/c1ccc(O)c(O)c1)O[C@@H]1C[C@](O)(C(=O)O)C[C@@H](O)[C@H]1O", "note": "[Chlorogenic acid]", "values": [{"measurement": "Inflammation control effect versus control group", "setting": "scleritis [1]; [4]", "value": "significantly better than the control group"}, {"measurement": "Cure", "setting": "scleritis [1]", "value": "5 (50%)* cases (%)"}, {"measurement": "Improved", "setting": "scleritis [1]", "value": "3 (30%) cases (%)"}, {"measurement": "Ineffective", "setting": "scleritis [1]", "value": "2 (20%) cases (%)"}, {"measurement": "Total effective rate", "setting": "scleritis [1]", "value": "8 (80%)* cases (%)"}, {"measurement": "Ocular inflammation (score) compared with the control group at the same time point", "setting": "[3]; vs normal saline control, P<0.05", "value": "significantly reduced; also recorded: significantly lower"}, {"measurement": "Scores of ocular inflammation in rats", "setting": "[3]; day 6 after immunization", "value": "0.6 ± 0.2"}, {"measurement": "Scores of ocular inflammation in rats", "setting": "[3]; day 7 after immunization", "value": "0.6 ± 0.2"}, {"measurement": "Scores of ocular inflammation in rats", "setting": "[3]; day 8 after immunization", "value": "0.7 ± 0.4"}, {"measurement": "Scores of ocular inflammation in rats", "setting": "[3]; day 9 after immunization", "value": "1.1 ± 0.4"}, {"measurement": "Scores of ocular inflammation in rats", "setting": "[3]; day 10 after immunization", "value": "1.3 ± 0.6"}, {"measurement": "Scores of ocular inflammation in rats", "setting": "[3]; day 11 after immunization", "value": "1.9 ± 0.6"}, {"measurement": "Scores of ocular inflammation in rats", "setting": "[3]; day 12 after immunization", "value": "2.0 ± 0.4"}, {"measurement": "Scores of ocular inflammation in rats", "setting": "[3]; day 13 after immunization", "value": "1.3 ± 0.6"}, {"measurement": "Scores of ocular inflammation in rats", "setting": "[3]; day 14 after immunization", "value": "1.1 ± 0.3"}, {"measurement": "Scores of ocular inflammation in rats", "setting": "[3]; day 15 after immunization", "value": "0.5 ± 0.3"}, {"measurement": "Scores of ocular inflammation in rats", "setting": "[3]; day 16 after immunization", "value": "0.4 ± 0.3"}, {"measurement": "Scores of ocular inflammation in rats", "setting": "[3]; day 17 after immunization", "value": "0.3 ± 0.1"}, {"measurement": "Scores of ocular inflammation in rats", "setting": "[3]; day 18 after immunization", "value": "0.3 ± 0.1"}, {"measurement": "Scores of ocular inflammation in rats", "setting": "[3]; day 19 after immunization", "value": "0.3 ± 0.1"}, {"measurement": "Scores of ocular inflammation in rats", "setting": "[3]; day 20 after immunization", "value": "0.3 ± 0.1"}, {"measurement": "Vision recovery versus control group", "setting": "scleritis [2]; [4]", "value": "significantly better than the control group"}, {"measurement": "Ineffective", "setting": "scleritis [2]", "value": "1 (10%) case (%)"}, {"measurement": "Total effective rate", "setting": "scleritis [2]", "value": "90 (90%)* case (%)"}, {"measurement": "Improved", "setting": "scleritis [2]", "value": "3 (30%) case (%)"}, {"measurement": "Significantly improved vision", "setting": "scleritis [2]", "value": "6 (60%)* case (%)"}]}
